Patent US20160340322A1 (NISSAN CHEMICAL INDUSTRIES, LTD., priority 2013, published 2016)

What follows are molecules tested against T1, Human T-type calcium channel (Cav 3.2) (Homo sapiens, UniProt O95180) (assay: Calcium Influx Inhibition Assay). Conditions: human T-type calcium channel (Cav 3.2) expressing HEK293 cells; FLIPR Calcium 4 fluorescence; 30 min compound incubation; read-out: T-type calcium channel inhibition concentration IC50.
T1 construct: Edward Perez-Reyes, University of Virginia, USA; host or cells: HEK293
Assay type: cell-based
Method: 1. Calcium Influx Inhibition Assay Human T-type calcium channel (Cav 3.2) expressing HEK293 cells were introduced from Prof. Edward Perez-Reyes, University of Virginia, USA. The calcium-sensitive fluorescent dye used was FLIPR Calcium 4 Assay Kit (Molecular Devices). To a black 96-well plate with a clear bottom coated with type I collagen, the human T-type calcium channel (Cav 3.2) expressing HEK293 cells were seeded and cultured overnight, and the culture medium was removed. A solution of the calcium-sensitive fluorescent dye was added, and the resultant plate was incubated at 37° C. in an atmosphere of 5% carbon dioxide for 30 minutes. To the plate, a diluted solution of a compound was added, and subjected to further incubation at 37° C. in an atmosphere of 5% carbon dioxide for 30 minutes. While fluorescence was continuously analyzed from the bottom with a FlexStation 3 (Molecular Devices), a calcium solution was added. […] Based on the rise value in the fluorescence from the base line, the inhibition percentage was calculated. The logarithms of compound concentrations were plotted with respect to the inhibition activities to obtain an IC50 value.

T1 sequence (O95180 whole entry): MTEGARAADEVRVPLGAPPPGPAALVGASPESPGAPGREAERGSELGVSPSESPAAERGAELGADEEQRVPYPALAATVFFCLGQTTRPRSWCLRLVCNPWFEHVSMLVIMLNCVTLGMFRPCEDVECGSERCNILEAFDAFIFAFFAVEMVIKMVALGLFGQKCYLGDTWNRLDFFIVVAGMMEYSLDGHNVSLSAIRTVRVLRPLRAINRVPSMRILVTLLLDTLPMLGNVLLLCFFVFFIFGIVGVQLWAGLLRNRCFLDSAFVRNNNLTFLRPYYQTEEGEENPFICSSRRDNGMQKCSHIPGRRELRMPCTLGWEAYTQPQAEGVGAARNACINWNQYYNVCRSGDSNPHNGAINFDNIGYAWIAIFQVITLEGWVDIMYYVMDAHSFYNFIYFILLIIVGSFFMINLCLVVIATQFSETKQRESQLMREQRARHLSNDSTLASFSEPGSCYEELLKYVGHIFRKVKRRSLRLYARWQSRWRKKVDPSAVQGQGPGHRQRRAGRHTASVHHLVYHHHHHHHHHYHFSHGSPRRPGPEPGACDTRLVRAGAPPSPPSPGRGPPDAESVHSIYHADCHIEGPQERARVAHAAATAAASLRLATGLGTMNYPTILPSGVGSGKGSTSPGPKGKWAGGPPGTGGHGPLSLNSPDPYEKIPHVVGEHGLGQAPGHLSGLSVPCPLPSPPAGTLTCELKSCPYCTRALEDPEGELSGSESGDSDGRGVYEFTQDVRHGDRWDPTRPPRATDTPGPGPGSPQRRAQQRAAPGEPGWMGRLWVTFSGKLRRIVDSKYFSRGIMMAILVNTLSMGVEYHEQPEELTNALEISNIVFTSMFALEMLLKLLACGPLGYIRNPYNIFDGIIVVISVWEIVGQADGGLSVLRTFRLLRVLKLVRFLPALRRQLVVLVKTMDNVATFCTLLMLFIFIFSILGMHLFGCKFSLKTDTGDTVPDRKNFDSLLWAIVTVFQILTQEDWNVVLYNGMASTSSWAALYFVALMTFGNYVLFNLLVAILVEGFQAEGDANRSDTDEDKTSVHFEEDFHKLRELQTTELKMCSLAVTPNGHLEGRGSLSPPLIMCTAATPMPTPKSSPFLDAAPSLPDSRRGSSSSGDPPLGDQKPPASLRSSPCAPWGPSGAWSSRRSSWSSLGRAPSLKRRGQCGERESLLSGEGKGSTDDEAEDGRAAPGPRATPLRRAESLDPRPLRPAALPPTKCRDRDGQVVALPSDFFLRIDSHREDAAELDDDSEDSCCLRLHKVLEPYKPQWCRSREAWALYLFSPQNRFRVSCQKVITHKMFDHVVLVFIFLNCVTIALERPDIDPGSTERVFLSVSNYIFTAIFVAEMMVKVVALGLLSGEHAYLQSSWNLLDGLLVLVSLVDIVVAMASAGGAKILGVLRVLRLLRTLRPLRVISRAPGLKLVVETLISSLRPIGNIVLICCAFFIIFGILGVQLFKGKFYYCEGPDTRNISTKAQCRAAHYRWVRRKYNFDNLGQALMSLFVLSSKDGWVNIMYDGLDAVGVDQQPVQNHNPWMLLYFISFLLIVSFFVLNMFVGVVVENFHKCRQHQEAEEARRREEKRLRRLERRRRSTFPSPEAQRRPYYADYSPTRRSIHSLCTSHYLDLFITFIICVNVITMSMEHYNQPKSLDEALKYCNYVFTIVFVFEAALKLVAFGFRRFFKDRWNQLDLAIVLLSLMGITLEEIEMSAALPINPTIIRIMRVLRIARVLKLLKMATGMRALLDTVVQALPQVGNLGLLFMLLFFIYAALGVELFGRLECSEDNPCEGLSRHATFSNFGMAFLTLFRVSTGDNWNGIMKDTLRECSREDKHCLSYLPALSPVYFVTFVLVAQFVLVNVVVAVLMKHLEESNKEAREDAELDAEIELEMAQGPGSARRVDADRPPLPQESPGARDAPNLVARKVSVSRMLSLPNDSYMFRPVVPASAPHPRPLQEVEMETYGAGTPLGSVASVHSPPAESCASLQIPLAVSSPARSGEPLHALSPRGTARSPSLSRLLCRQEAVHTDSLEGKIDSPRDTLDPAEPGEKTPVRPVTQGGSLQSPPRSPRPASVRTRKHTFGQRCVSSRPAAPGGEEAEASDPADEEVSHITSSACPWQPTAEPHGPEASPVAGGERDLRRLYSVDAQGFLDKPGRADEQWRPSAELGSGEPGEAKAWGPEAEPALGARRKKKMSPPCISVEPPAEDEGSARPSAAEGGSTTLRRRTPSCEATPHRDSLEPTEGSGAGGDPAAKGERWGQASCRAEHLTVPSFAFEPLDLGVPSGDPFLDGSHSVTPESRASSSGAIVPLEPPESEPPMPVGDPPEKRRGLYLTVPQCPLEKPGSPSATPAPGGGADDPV

Row | Structure (SMILES) | IC50
1 | COc1cccc(C2=CCN(c3cnn(Cc4ccc(C(F)(F)F)s4)c(=O)n3)C[C@@H]2O)n1 [Synthesis Example 32] | 48 nM
2 | Cc1nc(N2CCN(c3cnn(Cc4ccc(C(F)(F)F)s4)c(=O)n3)CC2)ccc1F [Synthesis Example 33] | 32 nM
3 | O=c1nc(N2CCN(c3ccc(F)c(Cl)c3)CC2)cnn1Cc1ccc(C(F)(F)F)s1 [Synthesis Example 34] | 61 nM
4 | O=c1nc(N2CC=C(c3ccc(F)cc3)C(F)C2)cnn1Cc1ccc(C(F)(F)F)s1 (stereo not drawn) [Synthesis Example 35, 5-[5-Fluoro-4-(4-fluorophenyl)-5,6-dihydropyridin-1(2H)-yl]-2-{[5-(trifluoromethyl)thiophen-2-yl]methyl}-1,2,4-triazin-3(2H)-one] | 31 nM
5 | NC1CN(c2cnn(Cc3ccc(C(F)(F)F)s3)c(=O)n2)CC=C1c1ccc(F)cc1 (stereo not drawn) [Synthesis Example 36, 5-[5-Amino-4-(4-fluorophenyl)-5,6-dihydropyridin-1(2H)-yl]-2-{[5-(trifluoromethyl)thiophen-2-yl]methyl}-1,2,4-triazin-3(2H)-one] | 3.4 nM
6 | Cc1ccc(C2=CCN(c3cnn(Cc4ccc(C(F)(F)F)s4)c(=O)n3)C[C@@H]2O)o1 [Synthesis Example 37, (R)-5-[5-Hydroxy-4-(5-methylfuran-2-yl)-5,6-dihydropyridin-(2H)-yl]-2-{[5-(trifluoromethyl)thiophen-2-yl]methyl}-1,2,4-triazin-3(2H)-one] | 4.8 nM
7 | Cn1cc(C2=CCN(c3cnn(Cc4ccc(C(F)(F)F)s4)c(=O)n3)C[C@@H]2O)cn1 [Synthesis Example 38, (R)-5-[5-Hydroxy-4-(1-methyl-1H-pyrazol-4-yl)-5,6-dihydropyridin-1(2H)-yl]-{[5-(trifluoromethyl)thiophen-2-yl]methyl}-1,2,4-triazin-3(2H)-one] | 180 nM
8 | Cn1ccc(C2=CCN(c3cnn(Cc4ccc(C(F)(F)F)s4)c(=O)n3)CC2)n1 [Synthesis Example 39, 5-[4-(1-Methyl-1H-pyrazol-3-yl)-5,6-dihydropyridin-1(2H)-yl]-2-{[5-(trifluoromethyl)thiophen-2-yl]methyl}-1,2,4-triazin-3(2H)-one] | 1300 nM
9 | Cc1cc(N2CCN(c3cnn(Cc4ccc(C(F)(F)F)s4)c(=O)n3)CC2)cs1 [Synthesis Example 40, 5-[4-(5-Methylthiophen-3-yl)piperazin-1-yl]-2-{[5-(trifluoromethyl)thiophen-2-yl]methyl}-1,2,4-triazin-3(2H)-one] | 69 nM
10 | O=c1nc(N2CCN(c3ccc(Cl)cc3)CC2)cnn1Cc1ccc(C(F)(F)F)s1 [Synthesis Example 41, 5-[4-(4-Chlorophenyl)piperazin-1-yl]-2-{[5-(trifluoromethyl)thiophen-2-yl]methyl}-1,2,4-triazin-3(2H)-one] | 29 nM
11 | COc1ccc2c(c1)CCN(c1cnn(Cc3ccc(C(F)(F)F)s3)c(=O)n1)C2C (stereo not drawn) [Synthesis Example 42, 5-[6-Methoxy-1-methyl-3,4-dihydroisoquinolin-2(1H)-yl]-2-{[5-(trifluoromethyl)thiophen-2-yl]methyl}-1,2,4-triazin-3(2H)-one] | 600 nM
12 | O=c1nc(N2CC=C(c3ccc(F)c(Cl)c3)[C@@H](O)C2)cnn1Cc1cnc(C(F)(F)F)s1 [Synthesis Example 43, (R)-5-[4-(3-Chloro-4-fluorophenyl)-5-hydroxy-5,6-dihydropyridin-1(2H)-yl]-2-{[2-(trifluoromethyl)thiazol-5-yl]methyl}-1,2,4-triazin-3(2H)-one] | 54 nM
13 | O=c1nc(N2CCc3cc(C(F)(F)F)ccc3C2)cnn1Cc1cnc(C(F)(F)F)s1 [Synthesis Example 44, 5-[6-(trifluoromethyl)-3,4-dihydroisoquinolin-2-(1H)-yl]-2-{[2-(trifluoromethyl)thiazol-5-yl]methyl}-1,2,4-triazin-3(2H)-one] | 570 nM
14 | Cc1ccc(C2=CCN(c3cnn(Cc4cnc(C(F)(F)F)s4)c(=O)n3)C[C@@H]2O)cc1F [Synthesis Example 45, (R)-5-[4-(3-Fluoro-4-methylphenyl)-5-hydroxy-5,6-dihydropyridin-1(2H)-yl]-2-{[2-(trifluoromethyl)thiazol-5-yl]methyl}-1,2,4-triazin-3(2H)-one] | 130 nM
15 | O=c1nc(N2CC=C(c3ccc(F)cc3)[C@@H](O)C2)cnn1Cn1ccc(C(F)(F)F)n1 [Synthesis Example 46, (R)-5-[4-(4-Fluorophenyl)-5-hydroxy-5,6-dihydropyridin-(2H)-yl]-2-{[3-(trifluoromethyl)-1H-pyrazol-1-yl]methyl}-1,2,4-triazin-3(2H)-one] | 110 nM
16 | O=c1nc(N2CC=C(c3ccc(F)cc3)[C@@H](O)C2)cnn1Cn1cc(Cl)cn1 [Synthesis Example 47, (R)-2-[(4-Chloro-1H-pyrazol-1-yl)methyl]-5-[4-(4-fluorophenyl)-5-hydroxy-5,6-dihydropyridin-1(2H)-yl]-1,2,4-triazin-3(2H)-one] | 2600 nM
17 | CC(C)(C)c1ccc(Cn2ncc(N3CC=C(c4ccc(F)cc4)[C@@H](O)C3)nc2=O)s1 [Synthesis Example 48, (R)-2-{[5-(Tert-butyl)thiophen-2-yl]methyl}-5-[4-(4-fluorophenyl)-5-hydroxy-5,6-dihydropyridin-(2H)-yl]-1,2,4-triazin-3(2H)-one] | 6.4 nM
18 | O=c1nc(N2CC=C(c3ccc(F)cc3)[C@@H](O)C2)cnn1Cn1ccc(C(F)(F)C(F)(F)F)n1 [Synthesis Example 49, (R)-5-[4-(4-Fluorophenyl)-5-hydroxy-5,6-dihydropyridin-1(2H)-yl]-2-{[3-(perfluoroethyl)-1 H-pyrazol-1-yl]methyl}-1,2,4-triazin-3(2H)-one] | 25 nM
19 | CC(C)(C)c1ncc(Cn2ncc(N3CC=C(c4ccc(F)cc4)[C@@H](O)C3)nc2=O)o1 [Synthesis Example 50, (R)-2-{[2-(Tert-butyl)oxazol-5-yl]methyl}-5-[4-(4-fluorophenyl)-5-hydroxy-5,6-dihydropyridin-1(2H)-yl]-1,2,4-triazin-3(2H)-one] | 62 nM
20 | O=c1nc(N2CC=C(c3ccc(F)cc3)[C@@H](O)C2)cnn1Cc1ccc(OS(=O)(=O)C(F)(F)F)nc1 [Synthesis Example 51, (R)-5-({5-[4-(4-Fluorophenyl)-5-hydroxy-5,6-dihydropyridin-1(2H)-yl]-3-oxo-1,2,4-triazin-2(3H)-yl}methyl)pyridin-2-yl trifluoromethanesulfonate] | 5.6 nM
21 | Cc1ccc(C2=CCN(c3cnn(Cc4ccc(C(F)(F)F)s4)c(=O)n3)C[C@@H]2O)cc1F [Synthesis Example 52, (R)-5-[4-(3-Fluoro-4-methylphenyl)-5-hydroxy-5,6-dihydropyridin-1(2H)-yl]-2-{[5-(trifluoromethyl)thiophen-2-yl]methyl}-1,2,4-triazin-3(2H)-one] | 7.9 nM
22 | O=c1nc(N2CCc3cc(C(F)(F)F)ccc3C2)cnn1Cc1ccc(C(F)(F)F)s1 [Synthesis Example 53, 5-[6-(trifluoromethyl)-3,4-dihydroisoquinolin-2(1H)-yl]-2-{[5-(trifluoromethyl)thiophen-2-yl]methyl}-1,2,4-triazin-3(2H)-one] | 170 nM
23 | O=c1nc(N2CC=C(c3ccc(F)c(Cl)c3)[C@@H](O)C2)cnn1Cc1ccc(C(F)(F)F)s1 [Synthesis Example 54, (R)-5-[4-(3-Chloro-4-fluorophenyl)-5-hydroxy-5,6-dihydropyridin-1(2H)-yl]-2-{[5-(trifluoromethyl)thiophen-2-yl]methyl}-1,2,4-triazin-3(2H)-one] | 3.1 nM
24 | O=c1nc(N2Cc3ccc(OC(F)F)cc3C(O)C2)cnn1Cc1cnc(C(F)(F)F)s1 (stereo not drawn) [Synthesis Example 55] | 1000 nM
